Experiments:
Assay in all cases: MIC, CLSI broth microdilution in CAMHB with 0-10% pulmonary surfactant (avibactam fixed at 4 μg/mL in combination)
S. aureus = type: cell-based, Staphylococcus aureus
Protocol: (§1) The bacterial strains used in this testing were part of the microbiological culture collection housed at AstraZeneca R&D Boston (AstraZeneca Research Collection, designated ARC). The panel of bacterial isolates used for this testing was comprised of five CLSI QC reference strains and the remainder were either recent clinical isolates expressing β-lactamases or isolates from the primary bacterial screening panels.
(§2) MIC values were determined using the CLSI broth microdilution methodology with slight variation. Stock compound mother plates were prepared and used to spot 2 μL aliquots of serial 2-fold drug dilutions to columns 1-11 of 96-well daughter plates using a Perkin-Elmer MiniTrak™ MultiPosition dispenser. […] An inoculum volume of 100 μL (5×10E^5 CFU/mL) in CAMHB containing 0, 1, 2.5, 5, or 10% pulmonary surfactant was added using a multichannel Finnpipette® to each well of the 96-well plate.
(§3) The minimum inhibitory concentration (MIC) values against each organism/drug combination were determined using broth microdilution methodology according to CLSI guidelines. The recommended reference bacterial strains for each test group and reference compounds were incorporated into each test. For Gram-negatives, the reference bacterial strains were Escherichia coli ATCC 25922, E. coli ATCC 35218, Klebsiella pneumoniae ATCC 700603, and Pseudomonas aeruginosa ATCC 27853. Staphylococcus aureus ATCC 29213 was the reference bacterial strain for the Gram-positives.
(§4) MIC values for individual isolates were read visually. The MICs for each compound or combination in pulmonary surfactant was compared to the compound or combination tested in CAMHB alone.

E. coli = type: cell-based; conditions: Escherichia coli
Protocol: as §1, §2, §3, §4

K. pneumoniae = type: cell-based; conditions: Klebsiella pneumoniae
Protocol: as §1, §2, §3, §4

Question: Which results are given for NC(=O)[C@@H]1CC[C@@H]2CN1C(=O)N2OS(=O)(=O)[O-].[Na+] [avibactam, [(2S,5R)-2-carbamoyl-7-oxo-1,6-diazabicyclo[3.2.1]octan-6-yl]hydrogen sulfate]?
Answer: MIC (S. aureus; S. aureus ARC12 (CLSI QC strain, ATCC 29213), surfactant 0%): >64 µg/mL; MIC (S. aureus; S. aureus ARC12 (CLSI QC strain, ATCC 29213), surfactant 1%): >64 µg/mL; MIC (S. aureus; S. aureus ARC12 (CLSI QC strain, ATCC 29213), surfactant 2.5%): >64 µg/mL; MIC (S. aureus; S. aureus ARC12 (CLSI QC strain, ATCC 29213), surfactant 5%): >64 µg/mL; MIC (S. aureus; S. aureus ARC12 (CLSI QC strain, ATCC 29213), surfactant 10%): >64 µg/mL; MIC (S. aureus; S. aureus ARC516 (MRSA, quinolone-resistant), surfactant 0%): >64 µg/mL; MIC (S. aureus; S. aureus ARC516 (MRSA, quinolone-resistant), surfactant 1%): >64 µg/mL; MIC (S. aureus; S. aureus ARC516 (MRSA, quinolone-resistant), surfactant 2.5%): >64 µg/mL; MIC (S. aureus; S. aureus ARC516 (MRSA, quinolone-resistant), surfactant 5%): >64 µg/mL; MIC (S. aureus; S. aureus ARC516 (MRSA, quinolone-resistant), surfactant 10%): >64 µg/mL; MIC (E. coli; ATCC25922, E. coli ARC4 (CLSI QC strain, ATCC 25922), surfactant 0%): 32 µg/mL; MIC (E. coli; ATCC25922, E. coli ARC4 (CLSI QC strain, ATCC 25922), surfactant 1%): 32 µg/mL; MIC (E. coli; ATCC25922, E. coli ARC4 (CLSI QC strain, ATCC 25922), surfactant 2.5%): 32 µg/mL; MIC (E. coli; ATCC25922, E. coli ARC4 (CLSI QC strain, ATCC 25922), surfactant 5%): 16 µg/mL; MIC (E. coli; ATCC25922, E. coli ARC4 (CLSI QC strain, ATCC 25922), surfactant 10%): 16 µg/mL; MIC (E. coli; ATCC35218, E. coli ARC016 (ATCC 35218, TEM-1), surfactant 0%): 16 µg/mL; MIC (E. coli; ATCC35218, E. coli ARC016 (ATCC 35218, TEM-1), surfactant 1%): 16 µg/mL; MIC (E. coli; ATCC35218, E. coli ARC016 (ATCC 35218, TEM-1), surfactant 2.5%): 16 µg/mL; MIC (E. coli; ATCC35218, E. coli ARC016 (ATCC 35218, TEM-1), surfactant 5%): 16 µg/mL; MIC (E. coli; ATCC35218, E. coli ARC016 (ATCC 35218, TEM-1), surfactant 10%): 16 µg/mL; MIC (E. coli; E. coli ARC523 (W3110), surfactant 0%): > 64 µg/mL; MIC (E. coli; E. coli ARC523 (W3110), surfactant 1%): > 64 µg/mL; MIC (E. coli; E. coli ARC523 (W3110), surfactant 2.5%): > 64 µg/mL; MIC (E. coli; E. coli ARC523 (W3110), surfactant 5%): > 64 µg/mL; MIC (E. coli; E. coli ARC523 (W3110), surfactant 10%): > 64 µg/mL; MIC (E. coli; E. coli ARC3666 (CTX-M-15, OXA-1/30, SHV-31, TEM-1), surfactant 0%): 8 µg/mL; MIC (E. coli; E. coli ARC3666 (CTX-M-15, OXA-1/30, SHV-31, TEM-1), surfactant 1%): 8 µg/mL; MIC (E. coli; E. coli ARC3666 (CTX-M-15, OXA-1/30, SHV-31, TEM-1), surfactant 2.5%): 8 µg/mL; MIC (E. coli; E. coli ARC3666 (CTX-M-15, OXA-1/30, SHV-31, TEM-1), surfactant 5%): 8 µg/mL; MIC (E. coli; E. coli ARC3666 (CTX-M-15, OXA-1/30, SHV-31, TEM-1), surfactant 10%): 8 µg/mL; MIC (E. coli; E. coli ARC3690 (CTX-M-15, SHV-12), surfactant 0%): 16 µg/mL; MIC (E. coli; E. coli ARC3690 (CTX-M-15, SHV-12), surfactant 1%): 16 µg/mL; MIC (E. coli; E. coli ARC3690 (CTX-M-15, SHV-12), surfactant 2.5%): 16 µg/mL; MIC (E. coli; E. coli ARC3690 (CTX-M-15, SHV-12), surfactant 5%): 16 µg/mL; MIC (E. coli; E. coli ARC3690 (CTX-M-15, SHV-12), surfactant 10%): 16 µg/mL; MIC (K. pneumoniae; ATCC700603, K. pneumoniae ARC561 (ATCC 700603; SHV-18, OXA-2, OKP-6), surfactant 0%): > 64 µg/mL; MIC (K. pneumoniae; ATCC700603, K. pneumoniae ARC561 (ATCC 700603; SHV-18, OXA-2, OKP-6), surfactant 1%): > 64 µg/mL; MIC (K. pneumoniae; ATCC700603, K. pneumoniae ARC561 (ATCC 700603; SHV-18, OXA-2, OKP-6), surfactant 2.5%): > 64 µg/mL; MIC (K. pneumoniae; ATCC700603, K. pneumoniae ARC561 (ATCC 700603; SHV-18, OXA-2, OKP-6), surfactant 5%): 64 µg/mL; MIC (K. pneumoniae; ATCC700603, K. pneumoniae ARC561 (ATCC 700603; SHV-18, OXA-2, OKP-6), surfactant 10%): 64 µg/mL; MIC (K. pneumoniae; K. pneumoniae ARC1865 (Primary Screening Panel), surfactant 1%): > 64 µg/mL; MIC (K. pneumoniae; K. pneumoniae ARC1865 (Primary Screening Panel), surfactant 2.5%): 64 µg/mL; MIC (K. pneumoniae; K. pneumoniae ARC1865 (Primary Screening Panel), surfactant 5%): > 64 µg/mL; MIC (K. pneumoniae; K. pneumoniae ARC1865 (Primary Screening Panel), surfactant 10%): > 64 µg/mL; MIC (K. pneumoniae; K. pneumoniae ARC1865 (Primary Screening Panel), surfactant concentration cell empty): > 64 µg/mL
